Measured values reported in ChEMBL document CHEMBL2390940, “Synthesis and receptor binding studies of novel 4,4-disubstituted arylalkyl/arylalkylsulfonyl piperazine and piperidine-based derivatives as a new class of σ1 ligands” (Eur J Med Chem, 2013).

What was measured:
[1] = Displacement of [3H]DTG from sigma2 receptor in Sprague-Dawley rat liver membrane after 150 mins by liquid scintillation counting analysis; format: cell membranes
[2] = target: Sigma non-opioid intracellular receptor 1 (Cavia porcellus, UniProt Q60492)
Chain of Sigma non-opioid intracellular receptor 1 (Q60492 whole entry): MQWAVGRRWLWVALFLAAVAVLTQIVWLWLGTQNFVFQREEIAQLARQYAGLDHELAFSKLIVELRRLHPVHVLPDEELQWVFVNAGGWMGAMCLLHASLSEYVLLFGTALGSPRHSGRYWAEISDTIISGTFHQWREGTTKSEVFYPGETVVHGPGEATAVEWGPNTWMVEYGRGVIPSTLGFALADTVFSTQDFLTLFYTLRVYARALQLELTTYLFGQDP

[3] = Binding affinity to sigma receptor (unknown origin); set-up: species or system Homo sapiens

SMILES | Ki [1] [nM] | Ki [2] [nM] | Ki [3] [nM]
O=S(=O)(Cc1ccccc1)N1CCN(Cc2ccccc2)CC1 | 48.4 | 11.2 | –
O=S(=O)(/C=C/c1ccccc1)N1CCN(Cc2ccccc2)CC1 | 8140 | 201 | –
O=S(=O)(Cc1ccccc1)N1CCN(Cc2ccc(Br)cc2)CC1 | 288 | 13.4 | –
c1ccc(CN2CCN(Cc3ccccc3)CC2)cc1 | 1270 | – | –
c1ccc(CCCN2CCC(Cc3ccccc3)CC2)cc1 | 3.3 | 0.4 | –
OC[C@@H]1CN(CCc2ccccc2)CCN1Cc1ccccc1 | 177 | 38 | –
Clc1ccc(/C=C/CN2CCN(Cc3ccccc3)CC2)cc1 | – | – | 0.3
O=S(=O)(Cc1cccc(Cl)c1)N1CCN(Cc2ccccc2)CC1 | 134 | 68.1 | –
O=S(=O)(Cc1cccc(Br)c1)N1CCN(Cc2ccccc2)CC1 | 148 | 29.9 | –
O=S(=O)(Cc1cccc(I)c1)N1CCN(Cc2ccccc2)CC1 | 88.8 | 2.7 | –
Cc1cccc(CS(=O)(=O)N2CCN(Cc3ccccc3)CC2)c1 | 89.4 | 35.9 | –
O=S(=O)(Cc1ccccc1)N1CCN(Cc2cccc(F)c2)CC1 | 181 | 68.7 | –
O=S(=O)(Cc1ccccc1)N1CCN(Cc2cccc(Cl)c2)CC1 | 174 | 51.8 | –
O=S(=O)(Cc1ccccc1)N1CCN(Cc2cccc(I)c2)CC1 | 117 | 1.8 | –
Cc1cccc(CN2CCN(S(=O)(=O)Cc3ccccc3)CC2)c1 | 151 | 15 | –
COc1ccc(CN2CCN(S(=O)(=O)Cc3ccccc3)CC2)cc1 | 2130 | 192 | –
O=S(=O)(Cc1ccccc1)N1CCC(Cc2ccccc2)CC1 | 38.9 | 9.9 | –

SMILES | Ki [1] [nM] | Ki [2] [nM] | Ki [3] [nM]
O=S(=O)(Cc1cccc(Cl)c1)N1CCC(Cc2ccccc2)CC1 | 199 | 40 | –
O=S(=O)(Cc1cccc(Br)c1)N1CCC(Cc2ccccc2)CC1 | 25.9 | 1.6 | –
O=S(=O)(Cc1cccc(I)c1)N1CCC(Cc2ccccc2)CC1 | 91.8 | 0.96 | –
Cc1cccc(CS(=O)(=O)N2CCC(Cc3ccccc3)CC2)c1 | 48.9 | 4.7 | –
O=S(=O)(c1ccccc1)N1CCC(Cc2ccccc2)CC1 | 56.7 | 24.3 | –
O=S(=O)(c1ccc(Cl)cc1)N1CCC(Cc2ccccc2)CC1 | 778 | 551 | –
O=S(=O)(c1ccc(Cl)cc1)N1CCN(Cc2ccccc2)CC1 | 1550 | 969 | –
O=S(=O)(CCc1ccccc1)N1CCC(Cc2ccccc2)CC1 | 187 | – | –
O=S(=O)(CCc1ccccc1)N1CCN(Cc2ccccc2)CC1 | 191 | 78.4 | –
O=S(=O)(/C=C/c1ccccc1)N1CCC(Cc2ccccc2)CC1 | 1960 | 138 | –
O=S(=O)(/C=C/c1ccc(Br)cc1)N1CCC(Cc2ccccc2)CC1 | 248 | 843 | –
O=S(=O)(/C=C/c1ccc(Br)cc1)N1CCN(Cc2ccccc2)CC1 | 485 | 1080 | –
O=S(=O)(c1ccccc1)N1CCN(Cc2ccccc2)CC1 | 87.1 | 28.4 | –
c1ccc(CCCN2CCN(Cc3ccccc3)CC2)cc1 | – | 20 | –
CC(C)=CCN1CC[C@]2(C)c3cc(O)ccc3C[C@H]1[C@H]2C [(+)-PENTAZOCINE] | 1870 | – | –
Cc1ccccc1NC(=N)Nc1ccccc1C [DITOLYLGUANIDINE] | 58.4 | – | –
O=C(CCCN1CCC(O)(c2ccc(Cl)cc2)CC1)c1ccc(F)cc1 [HALOPERIDOL] | 43.5 | – | –
